Patent publication US20240343704A1, “HALO-SUBSTITUTED AMINO PYRIDINE COMPOUNDS AS INHIBITORS OF THE HAEMATOPOIETIC PROGENITOR KINASE 1 (HPK1)” (priority 2021, published 2024)

molecular target: T1, Recombinant (1-346) HPK1 (h) (Homo sapiens, UniProt Q92918); test: HPK1 Human STE Kinase Enzymatic Radiometric Assay; assay type: biochemical; details: read-out: HPK1 IC50 nM Range*
T1 construct: Recombinant (1-346) HPK1 (h) is incubated with 8 mM MOPS pH 7.0
T1 sequence (Q92918 1-346): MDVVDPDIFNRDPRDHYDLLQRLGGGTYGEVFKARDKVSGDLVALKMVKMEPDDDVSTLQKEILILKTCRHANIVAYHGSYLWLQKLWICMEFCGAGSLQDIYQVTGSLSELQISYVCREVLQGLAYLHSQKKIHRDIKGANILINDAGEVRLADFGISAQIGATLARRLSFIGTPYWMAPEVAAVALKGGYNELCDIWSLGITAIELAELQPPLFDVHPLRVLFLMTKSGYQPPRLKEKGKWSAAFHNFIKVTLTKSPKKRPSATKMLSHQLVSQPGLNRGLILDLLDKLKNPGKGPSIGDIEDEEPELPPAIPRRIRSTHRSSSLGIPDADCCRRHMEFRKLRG
Description: A stock solution of 10 mM of test compound is prepared in DMSO. The compound plate was prepared by 3-fold and 9-point serial dilutions. […] The reaction is initiated by The addition of the Mg/ATP mix. After incubation for 40 minutes at RT, the reaction is stopped by the addition of phosphoric acid to a concentration of 0.5%.

| IC50 [nM] | SMILES |
| --- | --- |
| 11 to 100 | CCN(C)Cc1cc(-c2cc(-c3ccc4c(=O)[nH]cc(F)c4c3)c(N)nc2F)ccc1OC [I-633, 6-(2-amino-5-(3-((ethyl(methyl)amino)methyl)-4-methoxyphenyl)-6-fluoropyridin-3-yl)-4-fluoroisoquinolin-1(2H)-one] |
| 11 to 100 | COc1ccc(-c2cc(-c3ccc4c(c3)CCNC4=O)c(N)nc2F)cc1C#N [I-632, 5-(6-amino-2-fluoro-5-(1-oxo-1,2,3,4-tetrahydroisoquinolin-6-yl)pyridin-3-yl)-2-methoxybenzonitrile] |
| 0.1 to 10 | CC(=O)N1CCN(c2ccc(-c3cc(-c4cc5c(cc4F)C(=O)NCC5)c(N)nc3F)nc2)CC1 [I-592, 6-(5-(4-acetylpiperazin-1-yl)-6′-amino-2′-fluoro-[2,3′-bipyridin]-5′-yl)-7-fluoro-3,4-dihydroisoquinolin-1(2H)-one] |
| 11 to 100 | Cc1c[nH]c(=O)c2ccc(-c3cc(-c4ccc5c(c4)[C@H](N(C)C)CCO5)c(F)nc3N)cc12 [I-628, (R)-6-(2-amnio-5-(4-(dimethylamino)chroman-6-yl)-6-fluoropyridin-3-yl)-4-methylisoquinolin-1(2H)-one] |
| 0.1 to 10 | Cc1c[nH]c(=O)c2ccc(-c3cc(-c4ccc(N5CCOCC5)c(CN(C)C)n4)c(F)nc3N)cc12 [I-588, 6-(6′-amino-6-((dimethylamino)methyl)-2′-fluoro-5-morpholino-[2,3′-bipyridin]-5′-yl)-4-methylisoquinolin-1(2H)-one] |
| 11 to 100 | CN(C)[C@@H]1CCOc2ccc(-c3cc(-c4ccc5c(=O)[nH]cc(F)c5c4)c(N)nc3F)cc21 [I-631, (R)-6-(2-amino-5-(4-(dimethylamino)chroman-6-yl)-6-fluoropyridin-3-yl)-4-fluoroisoquinolin-1(2H)-one] |
| 11 to 100 | C[C@H]1CN(c2ccc(-c3cc(-c4ccc5c(c4)CCNC5=O)c(N)nc3F)cc2CN2CCC2)CCO1 [I-598, (S)-6-(2-amino-5-(3-(azetidin-1-ylmethyl)-4-(2-methylmorpholino)phenyl)-6-fluoropyridin-3-yl)-3,4-dihydroisoquinolin-1(2H)-one] |
| 101 to 1000 | Cc1c[nH]c(=O)c2ccc(-c3cc(-c4ccc(F)c(CN(C)C)c4)c(F)nc3N)cc12 [I-626, 6-(2-amino-5-(3-((dimethylamino)methyl)-4-fluorophenyl)-6-fluoropyridin-3-yl)-4-methylisoquinolin-1(2H)-one] |

More lines, now with the values behind:

| SMILES | IC50 [nM] |
| --- | --- |
| Nc1nc(F)c(-c2ccc(N3CCN(CC4CC4)CC3)cc2)cc1-c1cc(F)c2c(=O)[nH]cc(F)c2c1 [I-483, 6-(2-amino-5-(4-(4-(cyclopropylmethyl)piperazin-1-yl)phenyl)-6-fluoropyridin-3-yl)-4,8-difluoroisoquinolin-1(2H)-one] | 0.1 to 10 |
| Cc1nc2cc(-c3cc(-c4ccc(N5CCOCC5)c(CN(C)C)c4)c(F)nc3N)ccc2c(=O)[nH]1 [I-474, 7-(2-amino-5-(3-((dimethylamino)methyl)-4-morpholinophenyl)-6-fluoropyridin-3-yl)-2-methylquinazolin-4(3H)-one] | 11 to 100 |
| Cc1nc2cc(-c3cc(-c4ccc(N5CCN(CCC(F)F)CC5)cc4)c(F)nc3N)cc(F)c2c(=O)[nH]1 [I-485, 7-(2-amino-5-(4-(4-(3,3-difluoropropyl)piperazin-1-yl)phenyl)-6-fluoropyridin-3-yl)-5-fluoro-2-methylquinazolin-4(3H)-one] | 11 to 100 |
| CCN(C)Cc1nc(-c2cc(-c3cc4c(cc3F)C(=O)NCC4)c(N)nc2F)ccc1N1CCOCC1 [I-581, 6-(6′-amino-6-((ethyl(methyl)amino)methyl)-2′-fluoro-5-morpholino-[2,3′-bipyridin]-5′-yl)-7-fluoro-3,4-dihydroisoquinolin-1(2H)-one] | 0.1 to 10 |
| CC(C)N1CCN(c2ccc(-c3cc(-c4cc5c(F)c[nH]c(=O)c5cc4F)c(N)nc3F)cc2)CC1 [I-547, 6-(2-amino-6-fluoro-5-(4-(4-isopropylpiperazin-1-yl)phenyl)pyridin-3-yl)-4,7-difluoroisoquinolin-1(2H)-one] | 0.1 to 10 |
| CN(C)Cc1cc(-c2cc(-c3ccc4c(c3)CCNC4=O)c(N)nc2F)ccc1N1CCS(=O)(=O)CC1 [I-493, 6-(2-amino-5-(3-((dimethylamino)methyl)-4-(1,1-dioxidothiomorpholino)phenyl)-6-fluoropyridin-3-yl)-3,4-dihydroisoquinolin-1(2H)-one] | 11 to 100 |
| C[C@@H]1CN(c2ccc(-c3cc(-c4ccc5c(c4)CCNC5=O)c(N)nc3F)cc2CN(C)C)CCO1 [I-575, (R)-6-(2-amino-5-(3-((dimethylamino)methyl)-4-(2-methylmorpholino)phenyl)-6-fluoropyridin-3-yl)-3,4-dihydroisoquinolin-1(2H)-one] | 11 to 100 |
| Nc1nc(F)c(-c2ccc(N3CCOCC3)c(CN3CCCC3)c2)cc1-c1ccc2c(c1)CCNC2=O [I-491, 6-(2-amino-6-fluoro-5-(4-morpholino-3-(pyrrolidin-1-ylmethyl)phenyl)pyridin-3-yl)-3,4-dihydroisoquinolin-1(2H)-one] | 11 to 100 |
| Cc1nc2cc(-c3cc(-c4ccc([C@]56C[C@H]5CN(C)C6)cc4)c(F)nc3N)cc(F)c2c(=O)[nH]1 [I-469, 7-(2-amino-6-fluoro-5-(4-((1S,5R)-3-methyl-3-azabicyclo[3.1.0]hexan-1-yl)phenyl)pyridin-3-yl)-5-fluoro-2-methylquinazolin-4(3H)-one] | 11 to 100 |
| CN(C)Cc1cc(-c2cc(-c3cc4c(cc3F)C(=O)NCC4)c(N)nc2F)ccc1N1CCOCC1 [I-433, 6-(2-amino-5-(3-((dimethylamino)methyl)-4-morpholinophenyl)-6-fluoropyridin-3-yl)-7-fluoro-3,4-dihydroisoquinolin-1(2H)-one] | 0.1 to 10 |
| C[C@@H]1CN(c2ccc(-c3cc(-c4ccc5c(=O)[nH]cc(F)c5c4)c(N)nc3F)cc2)C[C@H](C)N1C [I-499, 6-(2-amino-6-fluoro-5-(4-((3R,5S)-3,4,5-trimethylpiperazin-1-yl)phenyl)pyridin-3-yl)-4-fluoroisoquinolin-1(2H)-one] | 0.1 to 10 |
| CC(C)N1CCN(c2ccc(-c3cc(-c4ccc5c(c4)S(=O)(=O)CNC5=O)c(N)nc3F)cc2)CC1 [I-424, 7-(2-amino-6-fluoro-5-(4-(4-isopropylpiperazin-1-yl)phenyl)pyridin-3-yl)-2,3-dihydro-4H-benzo[e][1,3]thiazin-4-one 1,1-dioxide] | 11 to 100 |
| Nc1nc(F)c(-c2ccc(C3CCOCC3)c(CN3CCCC3)c2)cc1-c1cc2c(cc1F)C(=O)NCC2 [I-558, 6-(2-amino-6-fluoro-5-(3-(pyrrolidin-1-ylmethyl)-4-(tetrahydro-2H-pyran-4-yl)phenyl)pyridin-3-yl)-7-fluoro-3,4-dihydroisoquinolin-1(2H)-one] | 11 to 100 |
| COC1CN(Cc2cc(-c3cc(-c4ccc5c(c4)CCNC5=O)c(N)nc3F)ccc2N2CCOCC2)C1 [I-522, 6-(2-amino-6-fluoro-5-(3-((3-methoxyazetidin-1-yl)methyl)-4-morpholinophenyl)pyridin-3-yl)-3,4-dihydroisoquinolin-1(2H)-one] | 11 to 100 |
| CN(C)Cc1cc(-c2cc(-c3cc(F)c4c(c3)CCNC4=O)c(N)nc2F)ccc1N1CCOCC1 [I-486, 6-(2-amino-5-(3-((dimethylamino)methyl)-4-morpholinophenyl)-6-fluoropyridin-3-yl)-8-fluoro-3,4-dihydroisoquinolin-1(2H)-one] | 0.1 to 10 |
